# From US20230131966A1, “FUNGICIDAL AMIDES” (FMC Corporation, priority 2020, published 2023)
# Tests used:
# Format in all cases: in vivo
# Phytophthora infestans = test: whole plant or invertebrate; conditions: tomato seedlings; for Test F disease control rating / pest or weed control at 250 ppm: 100 = 100% disease control, 0 = no control; for pest or weed control at 250 ppm: Phytophthora infestans, in Solanum lycopersicum, read-out: Test F disease control rating, 250 ppm
# Zymoseptoria tritici = test: Test C: wheat leaf blotch control on wheat seedlings; conditions: for Test C disease control rating / pest or weed control at 250 ppm: wheat seedlings, 100 = 100% disease control, 0 = no control; for pest or weed control at 250 ppm: Zymoseptoria tritici, read-out: Test C disease control rating
# Phakopsora pachyrhizi = test: Test A: Asian soybean rust control on soybean seedlings; conditions: for Test A disease control rating / pest or weed control at 250 ppm: soybean seedlings, 100 = 100% disease control, 0 = no control; for pest or weed control at 250 ppm: Phakopsora pachyrhizi, read-out: Test A disease control rating
# Plasmopara viticola = test: Test D: grape downy mildew control on grape seedlings; conditions: for Test D disease control rating / pest or weed control at 250 ppm: 100 = 100% disease control, 0 = no control; for pest or weed control at 250 ppm: Plasmopara viticola, read-out: Test D disease control rating
# [1] = tested on: Puccinia recondita f. sp. tritici; test: Test B: wheat leaf rust control on wheat seedlings; conditions: for Test B disease control rating / pest or weed control at 250 ppm: wheat seedlings, 100 = 100% disease control, 0 = no control; for pest or weed control at 250 ppm: Puccinia recondita, read-out: Test B disease control rating
# Botrytis cinerea = test: Test E: tomato Botrytis control on tomato seedlings; conditions: for Test E disease control rating / pest or weed control at 250 ppm: 100 = 100% disease control, 0 = no control; for pest or weed control at 250 ppm: Botrytis cinerea, read-out: Test E disease control rating
# [2] = tested on: Erysiphe graminis f. sp. tritici; test: Test G: wheat powdery mildew control on wheat seedlings; conditions: for Test G disease control rating / pest or weed control at 250 ppm: 100 = 100% disease control, 0 = no control; for pest or weed control at 250 ppm: Blumeria graminis, read-out: Test G disease control rating
# [3] = rate 250 ppm, relative to the controls
SMILES,Test F disease control rating (Phytophthora infestans; 250 ppm) [%],Test C disease control rating (Zymoseptoria tritici; 250 ppm) [%],Test A disease control rating (Phakopsora pachyrhizi; 250 ppm) [%],Test D disease control rating (Plasmopara viticola; 250 ppm) [%],Test B disease control rating ([1]; 250 ppm) [%],Test E disease control rating (Botrytis cinerea; 250 ppm) [%],Test G disease control rating ([2]; 250 ppm) [%],other results
COc1ccnc(C(=O)NC(C)C(=O)OC(C)C2CCC(C)(C)CC2)c1OC(C)=O (mixture of isomers) [Compound 165],0,97,100,10,100,0,0,–
"COc1ccnc(C(=O)N[C@@H](C)C(=O)OC(C)c2ccc(F)cc2Cc2ccccc2)c1OC(C)=O (single isomer, unassigned) [Compound 38]",0,53,0,44,41,0,0,–
COc1ccnc(C(=O)N[C@@H](C)C(=O)OC(C)c2cccc(OC3CCC(C)(C)CC3)c2)c1O (some centres unmarked) [Compound 138],0,63,95,18,74,0,0,–
COc1ccnc(C(=O)N[C@@H](C)C(=O)OC(C2CCCCC2)C2CCCCC2)c1OC(C)=O [Compound 46],0,68,100,22,68,0,91,–
"COc1ccnc(C(=O)N[C@@H](C)C(=O)OC(C)c2ccc(C3CCCCC3)cc2)c1O (mixture of isomers) [Compound 32, N-[(3-hydroxy-4-methoxy-2-pyridinyl)carbonyl]-L-alanine 1-(4-cyclohexylphenyl)ethyl ester]",–,–,–,–,–,–,–,pest or weed control at 250 ppm (Phytophthora infestans): 0%; pest or weed control at 250 ppm (Zymoseptoria tritici; 250 ppm): 86%; pest or weed control at 250 ppm (Phakopsora pachyrhizi; 250 ppm): 100%; pest or weed control at 250 ppm (Plasmopara viticola; 250 ppm): 18%; pest or weed control at 250 ppm ([1]; 250 ppm): 99%; pest or weed control at 250 ppm (Botrytis cinerea; 250 ppm): 0%; pest or weed control at 250 ppm ([2]; 250 ppm): 0%
COc1ccnc(C(=O)NC(C)C(=O)OC(C)c2cccc(-n3ccc(C(F)(F)F)n3)c2)c1OC(C)=O (mixture of isomers) [Compound 27],0,81,98,38,99,0,0,–
COc1ccnc(C(=O)NC(C)C(=O)OC(C)C2CCCCCC2)c1OC(C)=O (mixture of isomers) [Compound 101],–,–,–,–,–,–,–,Test F disease control rating (Phytophthora infestans; 50 ppm): 0%; Test C disease control rating (Zymoseptoria tritici; 50 ppm): 66%; Test A disease control rating (Phakopsora pachyrhizi; 50 ppm): 100%; Test D disease control rating (Plasmopara viticola; 50 ppm): 86%; Test B disease control rating ([1]; 50 ppm): 68%; Test E disease control rating (Botrytis cinerea; 50 ppm): 0%; Test G disease control rating ([2]; 50 ppm): 0%
"COc1ccnc(C(=O)N[C@@H](C)C(=O)O[C@@H](C)c2ccc(C3CCCCC3)cc2)c1OC(C)=O [Compound 95, N-[[3-(acetyloxy)-4-methoxy-2-pyridinyl]carbonyl]-L-alanine (1S)-1-(4-cyclohexylphenyl)ethyl ester]",–,–,–,–,–,–,–,pest or weed control at 250 ppm (Phytophthora infestans): 0%; pest or weed control at 250 ppm (Zymoseptoria tritici; 250 ppm): 100%; pest or weed control at 250 ppm (Phakopsora pachyrhizi; 250 ppm): 100%; pest or weed control at 250 ppm (Plasmopara viticola; 250 ppm): 1%; pest or weed control at 250 ppm ([1]; 250 ppm): 100%; pest or weed control at 250 ppm (Botrytis cinerea; 250 ppm): 0%; pest or weed control at 250 ppm ([2]; 250 ppm): 0%
COc1ccnc(C(=O)NC(C)C(=O)OC(C)c2ccc(C#N)cc2)c1O (mixture of isomers) [Compound 34],0,13,0,58,0,0,0,–
COc1ccnc(C(=O)NC(C)C(=O)OC(C)c2ccccc2Cc2ccc(F)cc2)c1O (mixture of isomers) [Compound 13],0,73,100,50,100,0,0,–
COc1ccnc(C(=O)N(C)C(C)C(=O)OC(C)c2ccc(C3CCCCC3)cc2)c1O (mixture of isomers) [Compound 193],–,–,–,–,–,–,–,"Test F disease control rating (100 = 100% disease control, 0 = no disease control) (Phytophthora infestans; [3]): 0%; Test C disease control rating (100 = 100% disease control, 0 = no disease control) (Zymoseptoria tritici; [3]): 3%; Test A disease control rating (100 = 100% disease control, 0 = no disease control) (Phakopsora pachyrhizi; [3]): 87%; Test D disease control rating (100 = 100% disease control, 0 = no disease control) (Plasmopara viticola; [3]): 74%; Test B disease control rating (100 = 100% disease control, 0 = no disease control) [1, 3]: 74%; Test E disease control rating (100 = 100% disease control, 0 = no disease control) (Botrytis cinerea; [3]): 0%; Test G disease control rating (100 = 100% disease control, 0 = no disease control) [2, 3]: 0%"
COc1ccnc(C(=O)NC(C)C(=O)OC(C)C2CCC(C(C)(C)C)CC2)c1OC(C)=O (mixture of isomers) [Compound 181],26,100,100,80,100,0,0,–
"COc1ccnc(C(=O)N[C@@H](C)C(=O)OC(C)c2ccc(F)cc2Cc2ccccc2)c1OC(C)=O (single isomer, unassigned) [Compound 37]",0,89,100,29,99,0,0,–
COc1ccnc(C(=O)N[C@@H](C)C(=O)OC(c2ccc(C3CCCCC3)cc2)C(F)(F)F)c1O (some centres unmarked) [Compound 120],0,95,99,24,94,0,0,–
"COc1ccnc(C(=O)N[C@@H](C)C(=O)OC(C)c2ccc(C3CCCCC3)cc2)c1OCOC(=O)C(C)C (single isomer, unassigned) [Compound 144]",0,93,77,35,86,0,0,–
COc1ccnc(C(=O)NC(C)C(=O)OC(C)c2ccc(C(F)(F)F)cc2)c1OC(C)=O (mixture of isomers) [Compound 35],0,80,100,68,100,0,0,–
COc1ccnc(C(=O)NC(C)C(=O)OC(C)c2cccc(C3CC3)c2)c1OC(C)=O (mixture of isomers) [Compound 157],0,86,100,63,100,0,0,–
